Measurements as given in patent US20150071856A1, “ANTAGONISTIC PEPTIDES FOR FRIZZLED-1 AND FRIZZLED-2” (Universiteit Maastricht, priority 2013, published 2015).
Entries after “also recorded” stand apart in the source; their conditions may differ. Residues, ends and D or L forms follow the SMILES beside them.

Legend:
frizzled-1 (rFzd-1) = biological target: T1, frizzled-1 (rFzd-1) (Rattus norvegicus, UniProt Q08463); test: Activity assay: luciferase reporter in HEK superTOPflash cells transfected with frizzled-1; type: cell-based
T1 construct: expressed in transfected cells; host or cells: HEK293 superTOPflash (transient, Fugene6, pcDNA3.1/hygro)
Method: (§1) Human embryonic kidney (HEK) cells were used for screening. These cells have a luciferase construct stably transfected into the genome (see FIG. 2A), such that when the frizzled receptor is activated and β-catenin is increased, the luciferase is activated by transcription and light can be measured.
(§2) The peptides were tested by transfecting the frizzled-1 or the frizzled-2 receptor and addition of UM206(S-S) to the cell culture. For testing antagonistic activity, UM206 was added and the natural ligand Wnt3a was added, which is a natural stimulus for the canonical pathway.
(§3) Day 2: Transfection 12-Well Plates • heat Fugene6 and DNA 15 minutes at RT • 2 ml serum-free medium in tube • add 3 μl fugene • add 2 μg DNA • incubate 30 minutes at RT • wash with PBS • add 50 μl transfectiemix • add 1 ml antibiotica-free medium
(§4) Day 3: Add Conditioned Medium or UM206
(§5) Day 4: Luciferase Activity Measurements • remove medium • wash with PBS • add 500 μl ⅕ lysisbuffer • shake for 60 minutes • centrifuge in tube • 20 μl lysaat and 50 μl luciferase in new tube for measurement • vortex • measure
(§6) Three areas of high homology that contained two cysteines are underlined (UM207), (UM208) and (UM206). In FIGS. 9B through 9D, the inhibitory effect of these three peptides on Wnt3a-induced luciferase activity in HEK293-superTOPflash is shown. […] Again, the peptides by themselves had no effect on the luciferase activity.
(§7) To determine the inhibitory constant of UM206-8, HEK293-superTOPflash cells were transfected with either rFzd-1 or -2 and incubated with Wnt3a (10^−9M) in the presence of increasing concentrations of either of the peptides (FIG. 15). For UM206, a biphasic inhibition curve was observed that was best fitted with a two-binding-state model.
(§8) The cell lines were cultured in 75 cm^2 culture flasks (Corning, Schiphol, the Netherlands) in Dulbeco's modified essential medium with L-glutamine (2 mM), 10% fetal calf serum (Invitrogen, Merelbeke, Belgium), and 1% gentamycin (Sigma-Aldrich, Zwijndrecht, The Netherlands). Before starting the experiment, the cell lines were treated with plasmocin 25 μg/ml (Invivogen, Toulose, France) and tested with a mycoalert mycoplasma detection kit (Lonza, Rockland Me., USA). Cells were transiently transfected with Fugene6 (Roche, Indianapolis Ind., USA) with plasmid DNA, pcDNA3.1/hygro (Invitrogen) with frizzled-1/2/4 or Wnts 3a-5a or with pcDNA3.0 (Invitrogen) containing the β-catenin or frizzled-5 sequence. After transfection, the cells were cultured for 24 hours in conditioned medium, collected from the cultured L-cells, L-cells with Wnt3a or 5a (Invitrogen). At the same moment the antagonist was added.

[1] = system: mouse and human Fzd-1 and -2; test: Antagonism of activation of mouse and human Fzd-1 and -2 by Wnt3a (data not shown); type: cell-based
Text: In FIG. 3, Panel E, the efficacy of UM206 to block the Wnt3a-induced activation of luciferase activity in HEK293 superTOPflash cells transfected with different Fzds is shown.

frizzled-2 (rFzd-2) = biological target: T2, frizzled-2 (rFzd-2) (Rattus norvegicus, UniProt Q08464); test: Activity assay: luciferase reporter in HEK superTOPflash cells transfected with frizzled-2; type: cell-based
T2 construct: expressed in transfected cells; host or cells: HEK293 superTOPflash (transient, Fugene6, pcDNA3.1/hygro)
Method: as §1, §2, §3, §4, §5, §6, §7, §8

canonical Wnt signaling = test: Activity assay (Example 1): TOPflash luciferase reporter in HEK (HEK293-superTOPflash) cells, receptor not specified; type: cell-based, human
Method: as §1, §2
Transfection and Luciferase Measurement:
(§9) Plate cells in 12-well plates
as §3, §4, §5, §6, §8
For the luciferase experiments not in HEK cells, the cells were additionally transfected with a TOPflash construct, eight TCF/LEF binding sites cloned into the pTA-Luc vector. Luciferase activity was measured using luciferase assay system (Promega, Madison Wis., USA).

myocardial infarction [2] = test: Echocardiography of mice after myocardial infarction; type: in vivo; details: UM206-treated group post-MI
Method: All animals were subjected to extensive echocardiography studies for the assessment of myocardial infarct size, LV cavity dimensions and ventricular function. Echocardiography examination was performed under 2% isofluorane. Echocardiograms were recorded with Philips Sonos 5500 ultrasound system (Philips, Eindhoven, the Netherlands) using a 20-MHz linear probe.

[3] = system: C-FIT cells (cardiac fibroblasts immortalized with telomerase); test: Migration assay (wound/scratch assay) with C-FIT cells overexpressing Fzd-1 or -2; type: cell-based, rat
Method: For this assay, we used rat cardiac fibroblasts, which were immortalized with telomerase, the C-FIT cell line. This cell line was characterized previously and resembles features of primary cardiac fibroblasts. C-FIT cells were plated, treated when they were 70% confluent and a wound was made with a pipette tip at the moment of 100% confluence.
This assay was first tested with the natural ligand Wnt3a, in combination with frizzled-1 and -2 overexpression. […] Next step was to see whether the antagonist could counteract this. (See FIG. 4.)
as §9
Transfection (see protocol)
Addition of conditioned medium
Make a scratch. This is time point zero.
Making pictures every six hours and analyzing the scratch width.
The overexpression of Fzd-1 and -2 in migrating (myo)fibroblasts during infarct healing was one of the first reports of activation of Wnt/Fzd signaling in cardiovascular remodeling (Blankesteijn 1997). To assess the functional relevance of Wnt/Fzd signaling on cardiac fibroblast proliferation, migration and differentiation, a cardiac fibroblast cell line immortalized with telomerase was used, as previously described (Janhunen 2009, Laeremans 2009).
Cells were plated on day 0, and cultured until 70% confluence before transfection or treatment. […] Scratch width was measured at this time point, and also after 6, 12, and 24 hours.

infarct rupture = test: Infarct rupture in 12956 mice treated with UM206; type: in vivo; details: infarct rupture frequency ˜60%; unpublished observations
Text: Because of the lack of pharmacological tools to intervene in Wnt/Fzd signaling in vivo, only genetic interventions have been reported so far in studies on the role of Wnt signaling in infarct healing. Barandon et al. were the first to show a beneficial effect of overexpression on infarct healing of FrzA, a bovine homologue of soluble frizzled-related protein-1 (sFRP1). They observed a decreased infarct size with elevated numbers of myofibroblasts and increased angiogenesis in the infarcted FrzA transgenic mice (Barandon et al., 2003), which could be confirmed in the present study using an Fzd-1 and -2 antagonist. […] In the mean time, the beneficial effects of sFRP overexpression on infarct healing have been confirmed by Kobayashi et al. (Kobayashi et al., 2009). Taken together, these reports support the observations of the present study and point to a beneficial effect of inhibiting Wnt/Fzd signaling on the wound-healing process after MI.

myocardial infarction [4] = details: mouse, in vivo
Method: To this end, we administered UM206 subcutaneously by an osmotic minipump (6 microgram/kg/day); the control group was equipped with a saline-filled minipump. The minipumps were implanted at the time of infarct induction and lasted for up to five weeks.
Male Swiss mice were used (10-12 weeks of age, Charles River, Maastricht, The Netherlands). The animals were randomly included into the three different experimental groups. […] In the treatment study, either UM206 (6 μg/kg/day) or saline were administrated by an osmotic minipump (Alzet 2002 or 2006 for two- and five-week treatments, respectively; Alzet, Cupertino Calif., USA). MI was induced, under isofluorane anesthesia as previously described (van den Borne et al., 2009).

[5] = Wnt3a-induced luciferase activity, antagonists at 1.10^−9 M

T1 sequence (Q08463 69-641): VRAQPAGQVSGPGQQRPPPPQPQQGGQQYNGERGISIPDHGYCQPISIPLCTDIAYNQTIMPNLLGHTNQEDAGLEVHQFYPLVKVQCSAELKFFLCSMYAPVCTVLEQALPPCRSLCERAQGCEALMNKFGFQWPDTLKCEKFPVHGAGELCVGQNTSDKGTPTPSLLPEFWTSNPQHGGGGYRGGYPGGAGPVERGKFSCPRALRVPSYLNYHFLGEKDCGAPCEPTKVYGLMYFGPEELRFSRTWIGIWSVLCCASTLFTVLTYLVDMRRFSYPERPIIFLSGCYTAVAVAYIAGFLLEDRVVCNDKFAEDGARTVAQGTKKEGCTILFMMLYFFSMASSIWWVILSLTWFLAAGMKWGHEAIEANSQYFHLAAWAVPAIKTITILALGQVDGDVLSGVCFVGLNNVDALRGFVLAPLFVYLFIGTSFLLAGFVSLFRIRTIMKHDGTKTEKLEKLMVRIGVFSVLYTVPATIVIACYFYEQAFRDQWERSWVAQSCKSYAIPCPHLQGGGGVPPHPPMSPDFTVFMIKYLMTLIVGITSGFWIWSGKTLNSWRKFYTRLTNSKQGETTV
T2 sequence (Q08464 29-570): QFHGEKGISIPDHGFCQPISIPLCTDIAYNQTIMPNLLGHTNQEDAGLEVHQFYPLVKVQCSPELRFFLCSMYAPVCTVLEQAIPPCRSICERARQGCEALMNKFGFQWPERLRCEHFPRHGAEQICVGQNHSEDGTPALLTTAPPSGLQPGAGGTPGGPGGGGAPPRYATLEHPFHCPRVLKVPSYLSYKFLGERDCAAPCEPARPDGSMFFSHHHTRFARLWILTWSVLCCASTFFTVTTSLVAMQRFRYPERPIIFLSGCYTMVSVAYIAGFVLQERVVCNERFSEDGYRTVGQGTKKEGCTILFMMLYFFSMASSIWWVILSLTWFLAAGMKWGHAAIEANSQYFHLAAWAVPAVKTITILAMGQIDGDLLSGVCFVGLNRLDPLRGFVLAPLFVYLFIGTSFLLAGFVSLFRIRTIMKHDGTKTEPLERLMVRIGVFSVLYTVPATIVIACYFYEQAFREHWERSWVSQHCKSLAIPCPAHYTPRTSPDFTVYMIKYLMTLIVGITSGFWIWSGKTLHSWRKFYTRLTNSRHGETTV

## CSCC[C@H](NC(=O)CNC(=O)[C@H](CCC(=O)O)NC(=O)[C@H](CO)NC(=O)[C@@H](NC(=O)[C@H](CCCCN)NC(=O)[C@H](CC(N)=O)NC(=O)[C@H](CS)NC(C)=O)[C@@H](C)O)C(=O)N[C@@H](CC(=O)O)C(=O)NCC(=O)N[C@@H](CS)C(=O)N[C@@H](CCC(=O)O)C(=O)N[C@@H](CC(C)C)C(N)=O [UM206, Ac-Cys-Asn-Lys-Thr-Ser-Glu-Gly-Met-Asp-Gly-Cys-Glu-Leu-NH2] (Ac-CNKTSEGMDGCEL-NH2)
frizzled-1 (rFzd-1); [5]
  % of inhibition for Fzd-1: 72.15%
frizzled-1 (rFzd-1); peptide 1.10^−8 M
  block of Wnt3a-induced luciferase activity, rFzd-1: blocked almost completely; also recorded: abolished the induction of luciferase activity almost completely
[1]
  antagonizing the activation of mouse and human Fzd-1 and -2 by Wnt3a: fully effective
frizzled-2 (rFzd-2)
  selectivity frizzled-2 over frizzled-1: slightly more selective for frizzled-2 over frizzled-1
frizzled-2 (rFzd-2); [5]
  % of inhibition for Fzd-2: 75.06%
frizzled-2 (rFzd-2); peptide 1.10^−8 M
  block of Wnt3a-induced luciferase activity, rFzd-2: blocked almost completely; also recorded: abolished the induction of luciferase activity almost completely
Canonical Wnt signaling
  IC50: in the nanomolar range
Canonical Wnt signaling; model of Example 1
  activity on the frizzled receptor: antagonist or agonist: very potent antagonist; also recorded: very potent inhibitor of the canonical Wnt signaling
Canonical Wnt signaling; without Wnt3a
  effect of the peptide by itself on luciferase activity: none of the three peptides by itself could induce an increase in luciferase activity; also recorded: no effect
Myocardial infarction [2]
  change of ejection fraction versus saline: doubling of the ejection fraction
  reduction in end diastolic volume of the left ventricle versus saline: 40%
[3]
  effect of UM206 alone on cell migration: no effect on cell migration
[3]; UM206 1.10^−8 M, Fzd-1 or -2 overexpression
  counteraction of Wnt3a/Wnt5a-induced attenuation of migration: migration was reset to the migration speed of the control; also recorded: blocked completely; also recorded: block this effect completely
Infarct rupture
  number of ruptured infarcts: did not reduce the number of ruptured infarcts
Myocardial infarction [4]
  adverse effects of chronic administration: did not observe any adverse effects
  effects on other organs known to contain Fzd-2, including kidney and small intestine: did not observe any effects
